How the values were obtained:
Experiment in all cases: relative viability (nuclei count vs DMSO), 5 days (fraction); higher = more cells survive
Tipifarnib + AZD7762 = compound: Cn1cncc1[C@@](N)(c1ccc(Cl)cc1)c1ccc2c(c1)c(-c1cccc(Cl)c1)cc(=O)n2C [Tipifarnib] + NC(=O)Nc1cc(-c2cccc(F)c2)sc1C(=O)N[C@H]1CCCNC1 [AZD7762] (partner 0.2 µM)
Procedure, shortened: (§1)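 After 5 days of treatment, lung cancer cells in 1536-well plates were fixed and stained in a single step (final 0.05% Triton X-100, 1% formaldehyde, 1 ug/ml Hoechst) and their nuclei counted on 4× images. Treatment had been applied by pin tool the day after seeding as one drug alone or as a fixed anchor-drug dose with five library-drug doses (not always all listed) in √10 steps. Relative viability is the nuclei count of treated wells divided by that of vehicle wells, and values are medians of duplicate plates.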

Tipifarnib + Pemetrexed = compound: Cn1cncc1[C@@](N)(c1ccc(Cl)cc1)c1ccc2c(c1)c(-c1cccc(Cl)c1)cc(=O)n2C [Tipifarnib] + Nc1nc2[nH]cc(CCc3ccc(C(=O)N[C@@H](CCC(=O)O)C(=O)O)cc3)c2c(=O)[nH]1 [Pemetrexed] (partner 0.2 µM)
Procedure, shortened: as §1

Tipifarnib + OSI-027 = compound: Cn1cncc1[C@@](N)(c1ccc(Cl)cc1)c1ccc2c(c1)c(-c1cccc(Cl)c1)cc(=O)n2C [Tipifarnib] + COc1cccc2cc(-c3nc([C@H]4CC[C@H](C(=O)O)CC4)n4ncnc(N)c34)[nH]c12 [OSI-027] (partner 0.5 µM)
Procedure, shortened: as §1

Tipifarnib + Foretinib = compound: Cn1cncc1[C@@](N)(c1ccc(Cl)cc1)c1ccc2c(c1)c(-c1cccc(Cl)c1)cc(=O)n2C [Tipifarnib] + COc1cc2c(Oc3ccc(NC(=O)C4(C(=O)Nc5ccc(F)cc5)CC4)cc3F)ccnc2cc1OCCCN1CCOCC1 [Foretinib] (partner 0.25 µM)
Procedure, shortened: as §1

HCC-827
relative viability (Tipifarnib + AZD7762; first compound 0.01 µM): 0.236
relative viability (Tipifarnib + AZD7762; first compound 0.03162 µM): 0.287
relative viability (Tipifarnib + AZD7762; first compound 0.1 µM): 0.206
relative viability (Tipifarnib + AZD7762; first compound 0.3162 µM): 0.207
relative viability (Tipifarnib + AZD7762; first compound 1 µM): 0.178
relative viability (Tipifarnib + Pemetrexed; first compound 0.01 µM): 0.273
relative viability (Tipifarnib + Pemetrexed; first compound 0.03162 µM): 0.32
relative viability (Tipifarnib + Pemetrexed; first compound 0.1 µM): 0.286
relative viability (Tipifarnib + Pemetrexed; first compound 0.3162 µM): 0.25
relative viability (Tipifarnib + Pemetrexed; first compound 1 µM): 0.275
relative viability (Tipifarnib + OSI-027; first compound 0.01 µM): 0.901
relative viability (Tipifarnib + OSI-027; first compound 0.03162 µM): 0.809
relative viability (Tipifarnib + OSI-027; first compound 0.1 µM): 0.687
relative viability (Tipifarnib + OSI-027; first compound 0.3162 µM): 0.435
relative viability (Tipifarnib + OSI-027; first compound 1 µM): 0.388
relative viability (Tipifarnib + Foretinib; first compound 0.01 µM): 1.06
relative viability (Tipifarnib + Foretinib; first compound 0.03162 µM): 1.05
relative viability (Tipifarnib + Foretinib; first compound 0.1 µM): 0.741
relative viability (Tipifarnib + Foretinib; first compound 0.3162 µM): 0.63
relative viability (Tipifarnib + Foretinib; first compound 1 µM): 0.568

HCC-78
relative viability (Tipifarnib + AZD7762; first compound 0.01 µM): 0.772
relative viability (Tipifarnib + AZD7762; first compound 0.03162 µM): 0.811
relative viability (Tipifarnib + AZD7762; first compound 0.1 µM): 0.483
relative viability (Tipifarnib + AZD7762; first compound 0.3162 µM): 0.511
relative viability (Tipifarnib + AZD7762; first compound 1 µM): 0.415
relative viability (Tipifarnib + Pemetrexed; first compound 0.01 µM): 0.934
relative viability (Tipifarnib + Pemetrexed; first compound 0.03162 µM): 0.941
relative viability (Tipifarnib + Pemetrexed; first compound 0.1 µM): 0.91
relative viability (Tipifarnib + Pemetrexed; first compound 0.3162 µM): 0.906
relative viability (Tipifarnib + Pemetrexed; first compound 1 µM): 0.933
relative viability (Tipifarnib + OSI-027; first compound 0.01 µM): 0.325
relative viability (Tipifarnib + OSI-027; first compound 0.03162 µM): 0.376
relative viability (Tipifarnib + OSI-027; first compound 0.1 µM): 0.354
relative viability (Tipifarnib + OSI-027; first compound 0.3162 µM): 0.373
relative viability (Tipifarnib + OSI-027; first compound 1 µM): 0.308
relative viability (Tipifarnib + Foretinib; first compound 0.01 µM): 0.58
relative viability (Tipifarnib + Foretinib; first compound 0.03162 µM): 0.546
relative viability (Tipifarnib + Foretinib; first compound 0.1 µM): 0.491
relative viability (Tipifarnib + Foretinib; first compound 0.3162 µM): 0.513
relative viability (Tipifarnib + Foretinib; first compound 1 µM): 0.461

NCI-H2085
relative viability (Tipifarnib + AZD7762; first compound 0.01 µM): 0.979
relative viability (Tipifarnib + AZD7762; first compound 0.03162 µM): 0.73
relative viability (Tipifarnib + AZD7762; first compound 0.1 µM): 0.67
relative viability (Tipifarnib + AZD7762; first compound 0.3162 µM): 0.478
relative viability (Tipifarnib + AZD7762; first compound 1 µM): 0.552
relative viability (Tipifarnib + Pemetrexed; first compound 0.01 µM): 0.874
relative viability (Tipifarnib + Pemetrexed; first compound 0.03162 µM): 0.677
relative viability (Tipifarnib + Pemetrexed; first compound 0.1 µM): 0.693
relative viability (Tipifarnib + Pemetrexed; first compound 0.3162 µM): 0.525
relative viability (Tipifarnib + Pemetrexed; first compound 1 µM): 0.539
relative viability (Tipifarnib + OSI-027; first compound 0.01 µM): 0.738
relative viability (Tipifarnib + OSI-027; first compound 0.03162 µM): 0.377
relative viability (Tipifarnib + OSI-027; first compound 0.1 µM): 0.397
relative viability (Tipifarnib + OSI-027; first compound 0.3162 µM): 0.367
relative viability (Tipifarnib + OSI-027; first compound 1 µM): 0.538
relative viability (Tipifarnib + Foretinib; first compound 0.01 µM): 0.853
relative viability (Tipifarnib + Foretinib; first compound 0.03162 µM): 0.6
relative viability (Tipifarnib + Foretinib; first compound 0.1 µM): 0.493
relative viability (Tipifarnib + Foretinib; first compound 0.3162 µM): 0.497
relative viability (Tipifarnib + Foretinib; first compound 1 µM): 0.589

PC-14
relative viability (Tipifarnib + AZD7762; first compound 0.01 µM): 0.322
relative viability (Tipifarnib + AZD7762; first compound 0.03162 µM): 0.228
relative viability (Tipifarnib + AZD7762; first compound 0.1 µM): 0.227
relative viability (Tipifarnib + AZD7762; first compound 0.3162 µM): 0.136
relative viability (Tipifarnib + AZD7762; first compound 1 µM): 0.16
relative viability (Tipifarnib + Pemetrexed; first compound 0.01 µM): 0.123
relative viability (Tipifarnib + Pemetrexed; first compound 0.03162 µM): 0.154
relative viability (Tipifarnib + Pemetrexed; first compound 0.1 µM): 0.157
relative viability (Tipifarnib + Pemetrexed; first compound 0.3162 µM): 0.146
relative viability (Tipifarnib + Pemetrexed; first compound 1 µM): 0.149
relative viability (Tipifarnib + OSI-027; first compound 0.01 µM): 0.795
relative viability (Tipifarnib + OSI-027; first compound 0.03162 µM): 0.29
relative viability (Tipifarnib + OSI-027; first compound 0.1 µM): 0.216
relative viability (Tipifarnib + OSI-027; first compound 0.3162 µM): 0.157
relative viability (Tipifarnib + OSI-027; first compound 1 µM): 0.124
relative viability (Tipifarnib + Foretinib; first compound 0.01 µM): 0.954
relative viability (Tipifarnib + Foretinib; first compound 0.03162 µM): 1.01
relative viability (Tipifarnib + Foretinib; first compound 0.1 µM): 0.912
relative viability (Tipifarnib + Foretinib; first compound 0.3162 µM): 0.602
relative viability (Tipifarnib + Foretinib; first compound 1 µM): 0.289
